± gives the expanded uncertainty stated by the source.
Legend:
[1] = 101.33 kPa, Liquid; for mass density: Vibrating tube method; for speed of sound: Sing-around technique in a fixed-path interferometer; for electrical conductivity: Alternating current cell with electrodes
[2] = refractive index (Na D-line) (dimensionless); details: 101.33 kPa, Liquid, Standard Abbe refractometry

SMILES: O [water]
- mass density ([1]; 293.15 K): 998.738 ± 0.11 kg/m3
- mass density ([1]; 298.15 K): 997.576 ± 0.11 kg/m3
- mass density ([1]; 303.15 K): 996.181 ± 0.11 kg/m3
- mass density ([1]; 308.15 K): 994.563 ± 0.11 kg/m3
- speed of sound ([1]; 313.15 K): 1528.8 ± 1.2 m/s
- mass density ([1]; 313.15 K): 992.744 ± 0.11 kg/m3
- mass density ([1]; 318.15 K): 990.737 ± 0.11 kg/m3
- speed of sound ([1]; 323.15 K): 1542.3 ± 1.2 m/s
- mass density ([1]; 323.15 K): 988.556 ± 0.11 kg/m3
- refractive index ([2]; 293.15 K): 1.33299 ± 0.00031
- refractive index ([2]; 298.15 K): 1.33251 ± 0.00031
- refractive index ([2]; 303.15 K): 1.33197 ± 0.00031
- refractive index ([2]; 308.15 K): 1.33135 ± 0.00031
- refractive index ([2]; 313.15 K): 1.33065 ± 0.00031
- refractive index ([2]; 318.15 K): 1.3299 ± 0.00031
- refractive index ([2]; 323.15 K): 1.32911 ± 0.00031

SMILES: C[C@H](O)C(=O)[O-].C[N+](C)(C)CCO
- electrical conductivity ([1]; 293.15 K): 0.0138 ± 0.00083 S/m
- speed of sound ([1]; 293.15 K): 1935.6 ± 5.2 m/s
- mass density ([1]; 293.15 K): 1143.46 ± 7.1 kg/m3
- electrical conductivity ([1]; 298.15 K): 0.0219 ± 0.0013 S/m
- speed of sound ([1]; 298.15 K): 1911.8 ± 5.2 m/s
- mass density ([1]; 298.15 K): 1140.3 ± 7.1 kg/m3
- electrical conductivity ([1]; 303.15 K): 0.0327 ± 0.002 S/m
- speed of sound ([1]; 303.15 K): 1892 ± 5.2 m/s
- mass density ([1]; 303.15 K): 1137.16 ± 7 kg/m3
- electrical conductivity ([1]; 308.15 K): 0.0455 ± 0.0027 S/m
- speed of sound ([1]; 308.15 K): 1874.8 ± 5.2 m/s
- mass density ([1]; 308.15 K): 1134.04 ± 7 kg/m3
- electrical conductivity ([1]; 313.15 K): 0.0647 ± 0.0039 S/m
- speed of sound ([1]; 313.15 K): 1859.1 ± 5.2 m/s
- mass density ([1]; 313.15 K): 1130.94 ± 6.9 kg/m3
- electrical conductivity ([1]; 318.15 K): 0.0897 ± 0.0054 S/m
- speed of sound ([1]; 318.15 K): 1844.8 ± 5.2 m/s
- mass density ([1]; 318.15 K): 1127.86 ± 6.9 kg/m3
- electrical conductivity ([1]; 323.15 K): 0.109 ± 0.0066 S/m
- speed of sound ([1]; 323.15 K): 1831.1 ± 5.2 m/s
- mass density ([1]; 323.15 K): 1124.79 ± 6.9 kg/m3
- refractive index ([2]; 293.15 K): 1.48146 ± 0.001
- refractive index ([2]; 298.15 K): 1.48056 ± 0.001
- refractive index ([2]; 303.15 K): 1.47931 ± 0.001
- refractive index ([2]; 308.15 K): 1.47808 ± 0.001
- refractive index ([2]; 313.15 K): 1.47676 ± 0.001
- refractive index ([2]; 318.15 K): 1.47544 ± 0.001
- refractive index ([2]; 323.15 K): 1.47418 ± 0.001

From the NIST ThermoML archive (doi:10.1016/j.jct.2014.03.021)
